Results: US20140357487A1, “PLANTS HAVING INCREASED TOLERANCE TO HERBICIDES” (BASF SE, priority 2011, published 2014)

How the values were obtained:
[1] = test system: transgenic soybean plants, Arabidopsis M335Y, event SDS-9866; assay: Greenhouse testing of transgenic soybean plants, Arabidopsis M335Y; assay type: in vivo, Glycine max; conditions: soybean SDS-9866, 5 days after herbicide treatment, average of 8 T1
Text: Various methods for the production of stably transformed plants are well known in the art. Coumarone-derivative herbicide tolerant soybean (Glycine max) or corn (Zea mays) plants can be produced by a method described by Olhoft et al. (US patent 2009/0049567). Briefly, HPPD or HST encoding polynucleotides are cloned into a binary vector using standard cloning techniques as described by Sambrook et al. (Molecular cloning (2001) Cold Spring Harbor Laboratory Press). The final vector construct contains an HPPD or HST encoding sequence flanked by a promoter sequence (e.g. the ubiquitin promoter (PcUbi) sequence) and a terminator sequence (e.g. the nopaline synthase terminator (NOS) sequence) and a resistance marker gene cassette (e.g. AHAS) (FIG. 2). Optionally, the HPPD or HST gene can provide the means of selection. Agrobacterium-mediated transformation is used to introduce the DNA into soybean's axillary meristem cells at the primary node of seedling explants. After inoculation and co-cultivation with Agrobacteria, the explants are transferred to shoot induction medium without selection for one week. The explants are subsequently transferred to shoot induction medium with 1-3 μM imazapyr (Arsenal) for 3 weeks to select for transformed cells. Explants with healthy callus/shoot pads at the primary node are then transferred to shoot elongation medium containing 1-3 μM imazapyr until a shoot elongates or the explant dies. After regeneration, transformants are transplanted to soil in small pots, placed in growth chambers (16 hr day/8 hr night; 25° C. day/23° C. night; 65% relative humidity; 130-150 mE m−2 s−1) and subsequently tested for the presence of the T-DNA via Taqman analysis. After a few weeks, healthy, transgenic positive, single copy events are transplanted to larger pots and allowed to grow in the growth chamber. Transformation of corn plants is done by a method described by McElver and Singh (WO 2008/124495). Plant transformation vector constructs containing HPPD or HST sequences are introduced into maize immature embryos via Agrobacterium-mediated transformation. Transformed cells are selected in selection media supplemented with 0.5-1.5 μM imazethapyr for 3-4 weeks. Transgenic plantlets are regenerated on plant regeneration media and rooted afterwards. Transgenic plantlets are subjected to TaqMan analysis for the presence of the transgene before being transplanted to potting mixture and grown to maturity in greenhouse. Arabidopsis thaliana is transformed with HPPD or HST sequences by floral dip method as described by McElver and Singh (WO 2008/124495). Transgenic Arabidopsis plants are subjected to Tag Man analysis for analysis of the number of integration loci. Transformation of Oryza sativa (rice) are done by protoplast transformation as described by Peng et al. (U.S. Pat. No. 6,653,529)
Transgenic plants expressing heterologous HPPD or HST enzymes are tested for tolerance against coumarone-derivative herbicides in greenhouse experiments.
For post emergence treatment, the test plants are first grown to a height of 3 to 15 cm, depending on the plant habit, and only then treated with the herbicides. For this purpose, the test plants are either sown directly and grown in the same containers, or they are first grown separately and transplanted into the test containers a few days prior to treatment.
Depending on the species, the plants are kept at 10-25° C. or 20-35° C. The test period extends over 3 weeks. During this time, the plants are tended and their response to the individual treatments is evaluated. […] Tolerance to coumarone-derivative herbicides can also be assessed in Arabidopsis. In this case transgenic Arabidopsis thaliana plants are assayed for improved tolerance to coumarone-derivative herbicides in 48-well plates. Seeds are surface sterilized by stirring for 5 min in ethanol+water (70+30 by volume), rinsing one time with ethanol+water (70+30 by volume) and two times with a sterile, deionized water. […]

Chlamydomonas HPPD1 = assay: HPPD activity assay, Chlamydomonas HPPD1; assay type: biochemical, Chlamydomonas reinhardtii; conditions: normalized on Arabidopsis wild-type HPPD
Method: HPPD produces homogentisic acid and CO2 from 4-hydroxyphenylpyruvate (4-HPP) and O2. The activity assay for HPPD is based on the analysis of homogentisic acid by reversed phase HPLC.
The assay mixture can contain 150 mM potassium phosphate buffer pH 7.0, 50 mM L-ascorbic acid, 1 μM FeSO4 and 7 μg of purified enzyme in a total volume of 1 ml.
Inhibitors are dissolved in DMSO (dimethylsulfoxide) to a concentration of 20 mM or 0.5 mM, respectively. From this stock solution serial five-fold dilutions are prepared in DMSO, which are used in the assay. The respective inhibitor solution accounts for 1% of the assay volume. Thus, final inhibitor concentrations range from 200 μM to 2.5 nM or from 5 μM to 63 pM, respectively. After a preincubation of 30 min the reaction is started by adding 4-HPP to a final concentration of 0.1 mM. The reaction is allowed to proceed for 120 min at room temperature. The reaction is stopped by addition of 100 μl of 4.5 M phosphoric acid.
Activities are normalized by setting the uninhibited enzyme activity to 100%. IC50 values are calculated using non-linear regression.
The assay mixture can contain 150 mM potassium phosphate buffer pH 7.0, 50 mM L-ascorbic acid, 100 μM Catalase (Sigma-Aldrich), 1 μM FeSO4 and 0.2 units of purified HPPD enzyme in a total volume of 505 μl. […]
Inhibitors are dissolved in DMSO (dimethylsulfoxide) to a concentration of 0.5 mM. […] IC50 values are calculated using non-linear regression.
Using methods which are described in the above examples or well known in the art, purified, recombinant wildtype HPPD enzymes are characterized with respect to their kinetic properties and sensitivity towards HPPD inhibiting herbicides. Apparent michaelis constants (Km) and maximal reaction velocities (Vmax) are calculated by non-linear regression with the software GraphPad Prism 5 (GraphPad Software, La Jolla, USA) using a substrate inhibition model. […] Weighted means (by standard error) of Km and […] values are calculated from at least three independent experiments. […]

CC1(C)c2cccnc2C(O)=C(c2ccc(Cl)nc2Cl)S1(=O)=O [Inhibitor 2, 7-(2,6-dichloro-3-pyridyl)-5,5-dimethyl-6,6-dioxo-thiopyrano[4,3-b]pyridin-8-ol]
Injury evaluation, scale of 1-100, bleaching phenotype ([1]; 2.5 g/ha): 4 | Injury evaluation, scale of 1-100, bleaching phenotype ([1]; 10 g/ha): 5 | Injury evaluation, scale of 1-100, bleaching phenotype ([1]; 40 g/ha): 10

Cc1c(C(=O)c2cnn(C)c2O)ccc(S(C)(=O)=O)c1C1=NOCC1 [Topramezone, reference compound]
Injury evaluation, scale of 1-100, bleaching phenotype ([1]; 6.25 g/ha): 4 | Injury evaluation, scale of 1-100, bleaching phenotype ([1]; 25 g/ha): 8 | Injury evaluation, scale of 1-100, bleaching phenotype ([1]; 100 g/ha): 23

COCCOCc1c(Cl)ccc(C2=C(O)c3ncccc3C(C)(C)S2(=O)=O)c1Cl [Inhibitor 3, 7-[2,4-dichloro-3-(2-methoxyethoxymethyl)phenyl]-5,5-dimethyl-6,6-dioxo-thiopyrano[4,3-b]pyridin-8-ol]
Normalized tolerance index TI (Chlamydomonas HPPD1): 0.1

CC1=NOC(c2c(Cl)ccc(C3=C(O)c4ncccc4C(C)(C)S3(=O)=O)c2Cl)C1 (centres unmarked) [Inhibitor 1, 7-[2,4-dichloro-3-(3-methyl-4,5-dihydroisoxazol-5-yl)phenyl]-5,5-dimethyl-6,6-dioxo-thiopyrano[4,3-b]pyridin-8-ol]
Normalized tolerance index TI (Chlamydomonas HPPD1): 2.1
